Converted amounts (≈) assume the structure as drawn.
Columns and labels:
Cryptococcus neoformans [1] = assay: Antifungal activity against Cryptococcus neoformans ATCC 32719 assessed as inhibition of growth incubated for 24 hrs by two-fold serial dilution method; type: functional
Aspergillus flavus [2] = assay: Antifungal activity against drug-resistant Aspergillus flavus ATCC 16870 assessed as inhibition of cell wall synthesis in presence of sorbitol incubated for 24 hrs; type: functional
A549 [3] = assay: Cytotoxicity against human A549 cells assessed as reduction in cell viability at 32 microg/ml incubated for 24 hrs by CCK-8 assay relative to control; type: toxicity, cell-based; conditions: a549, 24 h, at 32 µg/mL
Candida albicans [4] = assay: Antifungal activity against Candida albicans ATCC 76615 incubated for 24 hrs by half broth dilution based checkerboard method; type: functional
Cryptococcus neoformans [5] = assay: Antifungal activity against drug-resistant Cryptococcus neoformans ATCC 32719 assessed as inhibition of cell wall synthesis in presence of sorbitol incubated for 24 hrs; type: functional
Aspergillus fumigatus [6] = assay: Antifungal activity against drug-resistant Aspergillus fumigatus GIMCC 3.19 assessed as inhibition of cell wall synthesis in presence of sorbitol incubated for 24 hrs; type: functional
[7] = Inhibition of chitin synthase extracted from Candida tropicalis ATCC 750 using UDP-GlcNAc as substrate assessed as inhibition rate by TMB based microplate analyzer relative to control
Aspergillus flavus [8] = assay: Antifungal activity against Aspergillus flavus ATCC 16870 assessed as inhibition of growth incubated for 24 hrs by two-fold serial dilution method; type: functional
A549 [9] = assay: Cytotoxicity against human A549 cells assessed as reduction in cell viability at 128 microg/ml incubated for 24 hrs by CCK-8 assay relative to control; type: toxicity, cell-based; conditions: a549, 24 h, at 128 µg/mL
Candida albicans [10] = assay: Antifungal activity against Candida albicans ATCC 76615 assessed as inhibition of growth incubated for 24 hrs by two-fold serial dilution method; type: functional
A549 [11] = assay: Cytotoxicity against human A549 cells assessed as reduction in cell viability at 4 microg/ml incubated for 24 hrs by CCK-8 assay relative to control; type: toxicity, cell-based; conditions: a549, 24 h, at 4 µg/mL
A549 [12] = assay: Cytotoxicity against human A549 cells assessed as reduction in cell viability at 8 microg/ml incubated for 24 hrs by CCK-8 assay relative to control; type: toxicity, cell-based; conditions: a549, 24 h, at 8 µg/mL
Aspergillus fumigatus [13] = assay: Antifungal activity against Aspergillus fumigatus GIMCC 3.19 assessed as inhibition of growth incubated for 24 hrs by two-fold serial dilution method; type: functional
Cryptococcus neoformans [14] = assay: Antifungal activity against Cryptococcus neoformans ATCC 32719 incubated for 24 hrs by half broth dilution based checkerboard method; type: functional
Aspergillus fumigatus [15] = assay: Antifungal activity against Aspergillus fumigatus GIMCC 3.19 incubated for 24 hrs by half broth dilution based checkerboard method; type: functional
Candida tropicalis = assay: Inhibition of chitin synthase extracted from Candida tropicalis ATCC 750 using UDP-GlcNAc as substrate assessed as inhibition rate at 300 ug/ml by TMB based microplate analyzer relative to control; conditions: dose 300.0 µg/ml
Aspergillus flavus [16] = assay: Antifungal activity against Aspergillus flavus ATCC 16870 incubated for 24 hrs by half broth dilution based checkerboard method; type: functional
A549 [17] = assay: Cytotoxicity against human A549 cells assessed as reduction in cell viability at 16 microg/ml incubated for 24 hrs by CCK-8 assay relative to control; type: toxicity, cell-based; conditions: a549, 24 h, at 16 µg/mL
A549 [18] = assay: Cytotoxicity against human A549 cells assessed as reduction in cell viability at 64 microg/ml incubated for 24 hrs by CCK-8 assay relative to control; type: toxicity, cell-based; conditions: a549, 24 h, at 64 µg/mL
Aspergillus flavus [19] = assay: Synergistic antifungal activity against Aspergillus flavus ATCC 16870 assessed as fractional inhibitory concentration index in presence of Polyoxin B incubated for 24 hrs by half broth dilution based checkerboard method; type: functional
Cryptococcus neoformans [20] = assay: Antifungal activity against fluconazole-resistant Cryptococcus neoformans ATCC 32719 assessed as inhibition of fungal growth incubated for 24 to 72 hrs; type: functional; conditions: time 24-72 hrs
Candida albicans [21] = assay: Antifungal activity against fluconazole-resistant Candida albicans ATCC 76615 assessed as inhibition of fungal growth incubated for 24 to 72 hrs; type: functional; conditions: time 24-72 hrs
Candida albicans [22] = assay: Antifungal activity against drug-resistant Candida albicans ATCC 76615 assessed as inhibition of cell wall synthesis in presence of sorbitol incubated for 24 hrs; type: functional
Candida albicans [23] = assay: Synergistic antifungal activity against Candida albicans ATCC 76615 assessed as fractional inhibitory concentration index in presence of fluconazole incubated for 24 hrs by half broth dilution based checkerboard method; type: functional
Aspergillus fumigatus [24] = assay: Antifungal activity against Aspergillus fumigatus GIMCC 3.19 assessed as Polyoxin B MIC incubated for 24 hrs in presence of fluconazole by half broth dilution based checkerboard method; type: functional
Cryptococcus neoformans [25] = assay: Antifungal activity against Cryptococcus neoformans ATCC 32719 assessed as Polyoxin B MIC incubated for 24 hrs in presence of fluconazole by half broth dilution based checkerboard method; type: functional
Candida albicans [26] = assay: Synergistic antifungal activity against Candida albicans ATCC 76615 assessed as fractional inhibitory concentration index in presence of Polyoxin B incubated for 24 hrs by half broth dilution based checkerboard method; type: functional
Aspergillus fumigatus [27] = assay: Synergistic antifungal activity against Aspergillus fumigatus GIMCC 3.19 assessed as fractional inhibitory concentration index in presence of fluconazole incubated for 24 hrs by half broth dilution based checkerboard method; type: functional
Aspergillus flavus [28] = assay: Antifungal activity against fluconazole-resistant Aspergillus flavus ATCC 16870 assessed as inhibition of fungal growth incubated for 24 to 72 hrs; type: functional; conditions: time 24-72 hrs
Cryptococcus neoformans [29] = assay: Synergistic antifungal activity against Cryptococcus neoformans ATCC 32719 assessed as fractional inhibitory concentration index in presence of Polyoxin B incubated for 24 hrs by half broth dilution based checkerboard method; type: functional
Candida albicans [30] = assay: Antifungal activity against micafungin-resistant Candida albicans ATCC 76615 assessed as inhibition of fungal growth incubated for 24 to 72 hrs; type: functional; conditions: time 24-72 hrs
Aspergillus flavus [31] = assay: Antifungal activity against Aspergillus flavus ATCC 16870 assessed as Polyoxin B MIC incubated for 24 hrs in presence of fluconazole by half broth dilution based checkerboard method; type: functional
Candida albicans [32] = assay: Antifungal activity against Candida albicans ATCC 76615 assessed as fluconazole MIC incubated for 24 hrs in presence of fluconazole by half broth dilution based checkerboard method; type: functional
Aspergillus flavus [33] = assay: Synergistic antifungal activity against Aspergillus flavus ATCC 16870 assessed as fractional inhibitory concentration index in presence of fluconazole incubated for 24 hrs by half broth dilution based checkerboard method; type: functional
Aspergillus flavus [34] = assay: Antifungal activity against Aspergillus flavus ATCC 16870 assessed as fluconazole MIC incubated for 24 hrs in presence of fluconazole by half broth dilution based checkerboard method; type: functional
Aspergillus fumigatus [35] = assay: Antifungal activity against fluconazole-resistant Aspergillus fumigatus GIMCC 3.19 assessed as inhibition of fungal growth incubated for 24 to 72 hrs; type: functional; conditions: time 24-72 hrs
Cryptococcus neoformans [36] = assay: Synergistic antifungal activity against Cryptococcus neoformans ATCC 32719 assessed as fractional inhibitory concentration index in presence of fluconazole incubated for 24 hrs by half broth dilution based checkerboard method; type: functional
Candida albicans [37] = assay: Antifungal activity against Candida albicans ATCC 76615 assessed as Polyoxin B MIC incubated for 24 hrs in presence of fluconazole by half broth dilution based checkerboard method; type: functional
Cryptococcus neoformans [38] = assay: Antifungal activity against Cryptococcus neoformans ATCC 32719 assessed as fluconazole MIC incubated for 24 hrs in presence of fluconazole by half broth dilution based checkerboard method; type: functional
Aspergillus fumigatus [39] = assay: Antifungal activity against Aspergillus fumigatus GIMCC 3.19 assessed as fluconazole MIC incubated for 24 hrs in presence of fluconazole by half broth dilution based checkerboard method; type: functional
Aspergillus fumigatus [40] = assay: Synergistic antifungal activity against Aspergillus fumigatus GIMCC 3.19 assessed as fractional inhibitory concentration index in presence of Polyoxin B incubated for 24 hrs by half broth dilution based checkerboard method; type: functional

NC(=O)OC[C@H](O)[C@@H](O)[C@H](N)C(=O)N[C@H](C(=O)O)[C@H]1O[C@@H](n2cc(CO)c(=O)[nH]c2=O)[C@H](O)[C@@H]1O [POLYOXIN B]
MIC (Cryptococcus neoformans [1]): 16 µg/mL (≈ 31.5 µM) | MIC (Aspergillus flavus [2]): 512 µg/mL | Activity (A549 [3]): 92.7% | MIC (Candida albicans [4]): 16 µg/mL | MIC (Cryptococcus neoformans [5]): 256 µg/mL | MIC (Aspergillus fumigatus [6]): 128 µg/mL | IC50 [7]: 82 µM | MIC (Aspergillus flavus [8]): 16 µg/mL (≈ 31.5 µM) | Activity (A549 [9]): 84.3% | MIC (Candida albicans [10]): 16 µg/mL (≈ 31.5 µM) | Activity (A549 [11]): 99.2% | Activity (A549 [12]): 98.8% | MIC (Aspergillus fumigatus [13]): 8 µg/mL (≈ 15.8 µM) | MIC (Cryptococcus neoformans [14]): 16 µg/mL | MIC (Aspergillus fumigatus [15]): 8 µg/mL | inhibition (Candida tropicalis): 86.4% | MIC (Aspergillus flavus [16]): 16 µg/mL | Activity (A549 [17]): 97.9% | Activity (A549 [18]): 91.2%

O=C(CN1CCC(C(=O)Nc2cccc(Br)c2)CC1)Nc1ccc2c(c1)NC(=O)C1(CCNC1=O)C2 (racemic)
fractional inhibitory concentration index (FICI) (Aspergillus flavus [19]): 1.25 | MIC (Cryptococcus neoformans [20]): 32 µg/mL (≈ 57.7 µM) | MIC (Candida albicans [21]): 32 µg/mL (≈ 57.7 µM) | MIC (Cryptococcus neoformans [1]): 8 µg/mL (≈ 14.4 µM) | MIC (Candida albicans [22]): 128 µg/mL | fractional inhibitory concentration index (FICI) (Candida albicans [23]): 1.25 | MIC (Aspergillus fumigatus [24]): 32 µg/mL | MIC (Cryptococcus neoformans [25]): 8 µg/mL | MIC (Aspergillus flavus [2]): 256 µg/mL | fractional inhibitory concentration index (FICI) (Candida albicans [26]): 1.5 | MIC (Candida albicans [4]): 16 µg/mL | fractional inhibitory concentration index (FICI) (Aspergillus fumigatus [27]): 0.75 | MIC (Cryptococcus neoformans [5]): 256 µg/mL | MIC (Aspergillus fumigatus [6]): 256 µg/mL | IC50 [7]: 101 µM | MIC (Aspergillus flavus [28]): 32 µg/mL (≈ 57.7 µM) | MIC (Aspergillus flavus [8]): 32 µg/mL (≈ 57.7 µM) | MIC (Candida albicans [10]): 16 µg/mL (≈ 28.9 µM) | fractional inhibitory concentration index (FICI) (Cryptococcus neoformans [29]): 1 | MIC (Candida albicans [30]): 64 µg/mL (≈ 115 µM) | MIC (Aspergillus flavus [31]): 32 µg/mL | MIC (Aspergillus fumigatus [13]): 32 µg/mL (≈ 57.7 µM) | MIC (Cryptococcus neoformans [14]): 8 µg/mL | MIC (Candida albicans [32]): 1 µg/mL | MIC (Aspergillus fumigatus [15]): 32 µg/mL | fractional inhibitory concentration index (FICI) (Aspergillus flavus [33]): 0.625 | MIC (Aspergillus flavus [34]): 1.25 µg/mL | inhibition (Candida tropicalis): 80.6% | MIC (Aspergillus fumigatus [35]): 64 µg/mL (≈ 115 µM) | fractional inhibitory concentration index (FICI) (Cryptococcus neoformans [36]): 1.5 | MIC (Candida albicans [37]): 16 µg/mL | MIC (Cryptococcus neoformans [38]): 0.75 µg/mL | MIC (Aspergillus flavus [16]): 32 µg/mL | MIC (Aspergillus fumigatus [39]): 1 µg/mL | fractional inhibitory concentration index (FICI) (Aspergillus fumigatus [40]): 0.75

Cc1ccc(NC(=O)/C=C/C(=O)Nc2ccc3c(c2)NC(=O)C2(CCNC2=O)C3)cc1 (racemic)
fractional inhibitory concentration index (FICI) (Aspergillus flavus [19]): 2 | MIC (Cryptococcus neoformans [20]): 64 µg/mL (≈ 153 µM) | MIC (Candida albicans [21]): 64 µg/mL (≈ 153 µM) | MIC (Cryptococcus neoformans [1]): 32 µg/mL (≈ 76.5 µM) | MIC (Candida albicans [22]): 128 µg/mL | fractional inhibitory concentration index (FICI) (Candida albicans [23]): 1 | MIC (Aspergillus fumigatus [24]): 16 µg/mL | MIC (Cryptococcus neoformans [25]): 16 µg/mL | MIC (Aspergillus flavus [2]): 64 µg/mL | fractional inhibitory concentration index (FICI) (Candida albicans [26]): 1 | MIC (Candida albicans [4]): 8 µg/mL | fractional inhibitory concentration index (FICI) (Aspergillus fumigatus [27]): 1.5 | MIC (Cryptococcus neoformans [5]): 256 µg/mL | MIC (Aspergillus fumigatus [6]): 128 µg/mL | IC50 [7]: 201 µM | MIC (Aspergillus flavus [28]): 32 µg/mL (≈ 76.5 µM) | MIC (Aspergillus flavus [8]): 8 µg/mL (≈ 19.1 µM) | MIC (Candida albicans [10]): 16 µg/mL (≈ 38.2 µM) | fractional inhibitory concentration index (FICI) (Cryptococcus neoformans [29]): 1.5 | MIC (Candida albicans [30]): 64 µg/mL (≈ 153 µM) | MIC (Aspergillus flavus [31]): 4 µg/mL | MIC (Aspergillus fumigatus [13]): 16 µg/mL (≈ 38.2 µM) | MIC (Cryptococcus neoformans [14]): 16 µg/mL | MIC (Candida albicans [32]): 4 µg/mL | MIC (Aspergillus fumigatus [15]): 8 µg/mL | fractional inhibitory concentration index (FICI) (Aspergillus flavus [33]): 2 | MIC (Aspergillus flavus [34]): 4 µg/mL | inhibition (Candida tropicalis): 71.4% | MIC (Aspergillus fumigatus [35]): 32 µg/mL (≈ 76.5 µM) | fractional inhibitory concentration index (FICI) (Cryptococcus neoformans [36]): 1.5 | MIC (Candida albicans [37]): 8 µg/mL | MIC (Cryptococcus neoformans [38]): 8 µg/mL | MIC (Aspergillus flavus [16]): 4 µg/mL | MIC (Aspergillus fumigatus [39]): 4 µg/mL | fractional inhibitory concentration index (FICI) (Aspergillus fumigatus [40]): 1.5

— ChEMBL document CHEMBL6127079, “Design and synthesis of spiro[pyrrolidine-3,3'-quinoline]-2,2'-dione derivatives as novel antifungal agents targeting chitin synthase” (Eur J Med Chem, 2024)
